Among the data in ChEMBL document CHEMBL1127814, “Preferred orientations in the binding of 4'-hydroxyacetanilide (acetaminophen) to cytochrome P450 1A1 and 2B1 isoforms as determined by 13C- and 15N-NMR relaxation studies” (J Med Chem, 1994) are Kd values, retold here.

In one experiment the target is T1, Cytochrome P450 2B1 (Rattus norvegicus, UniProt P00176).
T1 sequence (P00176 whole entry): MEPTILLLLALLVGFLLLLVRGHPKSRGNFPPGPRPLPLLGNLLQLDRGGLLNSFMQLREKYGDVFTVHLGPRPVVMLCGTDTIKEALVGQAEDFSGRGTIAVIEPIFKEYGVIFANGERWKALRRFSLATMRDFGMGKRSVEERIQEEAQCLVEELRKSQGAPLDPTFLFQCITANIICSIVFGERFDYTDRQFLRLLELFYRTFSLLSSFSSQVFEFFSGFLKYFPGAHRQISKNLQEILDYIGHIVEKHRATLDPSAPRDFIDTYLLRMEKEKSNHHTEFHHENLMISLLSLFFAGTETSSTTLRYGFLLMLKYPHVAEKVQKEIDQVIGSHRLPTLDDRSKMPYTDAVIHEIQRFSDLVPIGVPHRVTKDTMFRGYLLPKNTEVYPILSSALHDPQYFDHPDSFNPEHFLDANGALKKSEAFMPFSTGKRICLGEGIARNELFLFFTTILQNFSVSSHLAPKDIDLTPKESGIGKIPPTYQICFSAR
Description: Spectral dissociation constant for rat liver Cytochrome P450 2B1. In kind it is ADME. The note with it: read-out: Ks.

The target in the next experiment is T2, Cytochrome P450 1A1 (Rattus norvegicus, UniProt P00185).
T2 sequence (P00185 whole entry): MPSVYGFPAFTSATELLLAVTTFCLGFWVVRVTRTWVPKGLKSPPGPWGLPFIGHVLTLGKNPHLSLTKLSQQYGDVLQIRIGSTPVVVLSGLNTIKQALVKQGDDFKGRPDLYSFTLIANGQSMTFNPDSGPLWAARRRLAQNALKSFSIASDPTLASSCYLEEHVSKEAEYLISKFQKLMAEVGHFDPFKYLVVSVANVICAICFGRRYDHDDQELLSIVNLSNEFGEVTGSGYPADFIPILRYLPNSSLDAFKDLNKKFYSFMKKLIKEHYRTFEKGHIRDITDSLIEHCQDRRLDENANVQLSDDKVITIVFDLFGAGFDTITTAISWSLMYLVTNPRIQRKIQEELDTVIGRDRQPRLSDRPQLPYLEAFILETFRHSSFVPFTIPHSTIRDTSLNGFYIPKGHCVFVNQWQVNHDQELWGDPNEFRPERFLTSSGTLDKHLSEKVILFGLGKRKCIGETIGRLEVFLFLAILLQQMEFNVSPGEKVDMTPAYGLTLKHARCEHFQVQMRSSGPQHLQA
The experiment in a line: Spectral dissociation constant for rat liver Cytochrome P450 1A1. In kind it is ADME. The note with it: read-out: Ks.

For the molecule `CC(=O)Nc1ccc(O)cc1` [ACETAMINOPHEN], the results for the Kd at Cytochrome P450 2B1 and on Cytochrome P450 1A1 were 800 µM and 870 µM, respectively.
